Reference: patent US20100240040A1, “METHOD FOR SCREENING FOR SELECTIVE MODULATOR OF THE NF-KB PATHWAY ACTIVATION” (INSTITUT PASTEUR, priority 2007, published 2010)
Where a SMILES comes first, the peptide text is derived from it. Where no end group is shown, it is not given here. The star is where a group is joined. BODIPYFLEthylmaleimide = Cc1cc(C)n2c1C=C1C=CC(CCC(=O)NCCN3C(=O)CC(*)C3=O)=[N+]1[B-]2(F)F; Bodipy = not defined here

Legend:
spCC2-LZ (MOD of NEMO) = target: T1, spCC2-LZ (MOD of NEMO) (Mus musculus, UniProt O88522); assay: Fluorescence anisotropy binding of labelled peptide to spCC2-LZ; conditions: labelled peptide 10 μM, increasing spCC2-LZ; read-out: dissociation constant for spCC2-LZ
T1 construct: spCC2-LZ, synthetic polypeptide subdomain CC2-LZ; made in house; host or cells: chemical synthesis
T1 sequence (O88522 253-336): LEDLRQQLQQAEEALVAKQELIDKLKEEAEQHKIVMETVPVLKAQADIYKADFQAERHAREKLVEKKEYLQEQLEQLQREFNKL
Procedure: Anisotropy measurements were performed with a QuantaMaster® fluorometer (PTI), equipped with polarizing filters for excitation and emission, and using a photomultiplier tube in the L-configuration. All experiments were carried out in a microcuvette (60 μl) at 22° C., with excitation and emission wavelengths at 495 and 513 nm. The band pass of the excitation and emission wavelengths was 2 and 4 nm, respectively. Steady-state fluorescence anisotropy, expressed as millianisotropy units was measured as described Agou et al., 2004a. All measurements were carried out in a 20 mM isoionic buffer pH 8 (10 mM acetic acide, 10 mM MES, 20 mM Tris), containing 20 mM KCl. Each data point is the result of 20 recording taken over a 2-min period. To analyse whether DR NLM binds the MOD of NEMO, fluorescent labelled BA-DR NLM (10 μM) was incubated with an increasing concentrations of spCC2-LZ and the complex formation was monitored by fluorescence polarization (P) and results are expressed as anisotropy (A) according to the formula A=2P/(3-P). The concentration of spCC2-LZ was determining by amino acid analysis (Vinolo et al; 2006). Data points were fitted to the binding isotherm equation which gives a dissociation constant of 17 μM.

[1] = target: T2, NEMO oligomers (Flag-NEMO/GFP-NEMO) (Mus musculus, UniProt O88522, A144V/E216G/P360T/S248N); assay: Inhibition of NEMO oligomerization in cells (GFP-NEMO/Flag-NEMO co-transfected 293T cells); format: cell-based, murine; conditions: 20 μM peptide
T2 construct: expressed in transfected cells; host or cells: 293T (human embryonal kidney), transient co-transfection
T2 sequence (O88522 with tags, fused parts or gaps A144V/E216G/S248N/P360T limits assumed): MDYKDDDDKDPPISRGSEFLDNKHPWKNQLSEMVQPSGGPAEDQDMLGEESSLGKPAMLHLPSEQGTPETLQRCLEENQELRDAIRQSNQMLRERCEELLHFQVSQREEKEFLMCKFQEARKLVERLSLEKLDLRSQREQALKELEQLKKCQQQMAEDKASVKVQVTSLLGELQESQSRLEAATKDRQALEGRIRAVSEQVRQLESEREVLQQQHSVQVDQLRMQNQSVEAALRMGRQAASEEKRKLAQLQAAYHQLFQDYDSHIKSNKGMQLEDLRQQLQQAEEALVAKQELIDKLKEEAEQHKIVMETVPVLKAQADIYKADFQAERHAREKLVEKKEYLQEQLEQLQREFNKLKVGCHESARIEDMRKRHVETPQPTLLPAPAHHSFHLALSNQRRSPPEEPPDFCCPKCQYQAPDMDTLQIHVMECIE
Procedure: 293T cells were transiently co-transfected by calcium-phosphate-DNA precipitation method with 2 μg of a plasmid pcDNA3 (Invitrogen) containing the sequence of FLAG-NEMO (pcDNA3-Flag-NEMO of sequence SEQ ID NO: 24) and 0.7 μg of a plasmid pcDNA3 containing the sequence of GFP-NEMO (pcDNA3-GFP-NEMO of sequence SEQ ID NO: 26). Empty vector is added up to a total amount of DNA of 4 μg per 6 cm dish. 24 h after transfection, cells were resuspended and incubated with or without 20 μM of peptides (A-NLM or A-DR NLM) for 7 h at 37° C. Cells were resuspended and washed twice with PBS to remove excess peptides and lysed in 150 μl of lysis buffer containing a protease inhibitor mixture as indicated above (Example 1.D). Lysates were clarified at 15 000×g at 4° C. for 20 min. The amount of proteins in the clarified lysate is determined by the Bradford method with the kit DC Biorad. 100 μg of total proteins were diluted in 200 μl of interaction buffer (50 mM TrisHCl pH 7.5, 1% triton X100, 1 mM DTE, 300 mM NaCl) and incubated 1 h at 4° C. with 40 μl of agarose anti-Flag M2 beads (Sigma). The oligomers Flag-NEMO/GFP-NEMO were pulled down with the anti-Flag M2 beads and washed twice with the interaction buffer. The fluorescence of GFP-NEMO were directly read on the beads with a fluorescence microplate reader SAFAS and the clarified lysates were analysed by Western blotting using anti-Flag, anti-GFP and anti-NDPK-B antibodies (Kraeft et al., 1996; Exp Cell Res; 227:63-69) to normalize the results.
In order to better analyze the molecular mechanism of the inhibition of the NF-κB pathway by DR NLM peptide, the Inventors have developed an assay to probe NEMO oligomerization in cells as described in Example 1.I (see FIG. 5 for an overview of the cell-based assay). For this, two plasmids were used, expressing respectively GFP-NEMO and Flag-NEMO fusion proteins. The plasmids were cotransfected in human 293T cells to overexpress exogenous GFP-NEMO and Flag-NEMO fusion proteins and enforce NEMO oligomerization. The cells were then submitted to detergent lysis and Flag-NEMO proteins were immunopurified using anti-Flag agarose beads and Flag peptide as described in Example 1.I. The fluorescence associated with beads that results from an association of Flag-NEMO with GFP-NEMO subunits within hetero-oligomers allow an estimate of the amount of oligomers present in the cellular extracts.

NF-κB pathway = conditions: cited from earlier work; for IC50 of inhibition of NF-κB activation: reported in WO2005/027959, Agou et al., 2004b
[2] = target: T3, CC2-LZ interaction with cellular polyubiquitinylated proteins (Mus musculus, UniProt O88522); assay: Pull-down of polyubiquitinylated proteins from JM4.5.2 extracts with biotinylated CC2-LZ, anti-ubiquitin Western blot; format: biochemical; conditions: 20 μM peptide, extracts of TNF-α stimulated JM4.5.2 cells
T3 construct: made in house; host or cells: chemical synthesis (bait); crude extract of JM4.5.2 cells with or without TNFα (partners)
T3 sequence (O88522 253-336): as the sequence (O88522 253-336) above
Procedure: 24·10^7 JM4.5.2 cells were stimulated or not with 10 ng/ml of TNFα for 10 minutes at 37° C., washed twice with cold PBS and lysed in 900 μl of lysis buffer containing a protease inhibitor mixture as indicated in Example 1.D. Lysates were clarified at 15 000×g at 4° C. for 30 min. 150 μl of proteins were incubated 2 h at 4° C. with 150 μl of streptavidin magnetic beads (MagPrep®, Novagen) pre-incubated 1 h at 4° C. with 10 μg of biotynilated-CC2-LZ and with or without 20 μM of peptides (BA-NLM or BA-DR NLM). Beads were washed 4 times in buffer A (10 mM Hepes pH 7.5, 150 mM NaCl, 8 mM MgCl2, 10% glycerol, 0.1 mM DDM and 1 mM DTE) and resuspended in 30 μl of laemmli buffer containing 6 M Urea. Samples were analysed by Western blotting using anti-ubiquitin antibodies (Sigma) as well as anti-NDPK-B antibodies for loading controls.
Thus, the Inventors examined whether DR NLM impedes the interaction between NEMO and the K63 polyubiquitin chains. To this end, they developed a pull down assay which uses the a peptide comprising the CC2 and the LZ domains of NEMO as a bait to pull down the polyubiquitinylated proteins as described in Example 1.J and depicted in FIG. 7A. […] After extensive washing of beads, all mono and polyubiquitinylated proteins bound to CC2-LZ were analysed by Western blot using anti-ubiquitin antibody (Sigma).

[3] = Circular dichroism and gel filtration, self-association of peptides; format: physicochemical; conditions: peptide concentration up to 100 μM; data not shown
Procedure: Far-UV circular dichroism (CD) measurements were performed with an Aviv 215 spectropolarimeter with samples diluted in 10 mM NaPO4 at pH 7.
Then, unlike the LZ peptide, DR NLM peptide as well as NLM peptide are unable to self-associate. Self association of LZ peptide is described by Agou et al., 2004b.

[4] = target: T4, Lys63-linked polyubiquitin chains (Homo sapiens, UniProt P0CG47); assay: In vitro binding assay by fluorescence polarization to polyubiquitin chains; conditions: tag-free peptide
T4 construct: the Lys63-linked polyubiquitin chains; purchased Boston Biochem

CC[C@H](C)[C@H](NC(=O)[C@H](CC(=O)O)NC(=O)[C@H](C)NC(=O)[C@H](CCC(N)=O)NC(=O)[C@H](C)NC(=O)[C@H](CCCCN)NC(=O)[C@H](CC(C)C)NC(=O)[C@H](CCCCN)NC(=O)[C@H](CCCCN)NC(=O)[C@H](Cc1c[nH]c2ccccc12)NC(=O)[C@H](CCCCN)NC(=O)[C@H](CCSC)NC(=O)[C@H](CCCNC(=N)N)NC(=O)[C@H](CCCNC(=N)N)NC(=O)[C@H](CC(N)=O)NC(=O)[C@H](CCC(N)=O)NC(=O)[C@H](Cc1ccccc1)NC(=O)[C@H](Cc1c[nH]c2ccccc12)NC(=O)[C@@H](NC(=O)[C@H](CCCCN)NC(=O)[C@@H](NC(=O)[C@H](CCC(N)=O)NC(=O)[C@H](CCCNC(=N)N)NC(=O)[C@H](CSC1CC(=O)N(CCNC(=O)CCC2=[N+]3C(=Cc4c(C)cc(C)n4[B-]3(F)F)C=C2)C1=O)NC(C)=O)[C@@H](C)CC)[C@@H](C)CC)C(=O)N[C@@H](Cc1ccc(O)cc1)C(=O)N[C@@H](CCCCN)C(=O)N[C@@H](C)C(=O)N[C@@H](CCCNC(=N)N)C(=O)N[C@@H](Cc1ccccc1)C(=O)N[C@@H](CCC(N)=O)C(=O)N[C@@H](C)C(=O)N[C@@H](CCC(=O)O)C(=O)N[C@@H](CCCNC(=N)N)C(=O)N[C@@H](Cc1c[nH]cn1)C(=O)N[C@@H](C)C(=O)N[C@@H](CCCNC(=N)N)C(=O)N[C@@H](CCC(=O)O)C(=O)N[C@@H](CCCCN)C(N)=O (stereo partly shown) [BA-DR NLM] (Ac-C(BODIPYFLEthylmaleimide)RQIKIWFQNRRMKWKKLKAQADIYKARFQAERHAREK-NH2; N-terminus and C-terminus assumed)
Kd (spCC2-LZ (MOD of NEMO)): 17 µM
amount of NEMO oligomers (fluorescent NEMO subunit recovered) [1]: same amount of NEMO oligomers in the absence or in the presence

CC[C@H](C)[C@H](NC(=O)[C@H](CC(=O)O)NC(=O)[C@H](C)NC(=O)[C@H](CCC(N)=O)NC(=O)[C@H](C)NC(=O)[C@H](CCCCN)NC(=O)[C@H](CC(C)C)NC(=O)[C@H](CCCNC(=N)N)NC(=O)[C@H](CCCNC(=N)N)NC(=O)[C@H](CCCNC(=N)N)NC(=O)[C@H](CCCNC(=N)N)NC(=O)[C@H](CCCNC(=N)N)NC(=O)[C@H](CCCNC(=N)N)NC(=O)[C@H](CCCNC(=N)N)NC(=O)[C@H](CSC1CC(=O)N(CCNC(=O)CCC2=[N+]3C(=Cc4c(C)cc(C)n4[B-]3(F)F)C=C2)C1=O)NC(C)=O)C(=O)N[C@@H](Cc1ccc(O)cc1)C(=O)N[C@@H](CCCCN)C(=O)N[C@@H](C)C(=O)N[C@@H](CCCNC(=N)N)C(=O)N[C@@H](Cc1ccccc1)C(=O)N[C@@H](CCC(N)=O)C(=O)N[C@@H](C)C(=O)N[C@@H](CCC(=O)O)C(=O)N[C@@H](CCCNC(=N)N)C(=O)N[C@@H](Cc1c[nH]cn1)C(=O)N[C@@H](C)C(=O)N[C@@H](CCCNC(=N)N)C(=O)N[C@@H](CCC(=O)O)C(=O)N[C@@H](CCCCN)C(N)=O (stereo partly shown) [BR7-DR NLM] (Ac-C(BODIPYFLEthylmaleimide)RRRRRRRLKAQADIYKARFQAERHAREK-NH2; N-terminus and C-terminus assumed)
Kd (spCC2-LZ (MOD of NEMO)): 21 µM

CC[C@H](C)[C@H](NC(=O)[C@H](CC(=O)O)NC(=O)[C@H](C)NC(=O)[C@H](CCC(N)=O)NC(=O)[C@H](C)NC(=O)[C@H](CCCCN)NC(=O)[C@H](CC(C)C)NC(C)=O)C(=O)N[C@@H](Cc1ccc(O)cc1)C(=O)N[C@@H](CCCCN)C(=O)N[C@@H](C)C(=O)N[C@@H](CC(=O)O)C(=O)N[C@@H](Cc1ccccc1)C(=O)N[C@@H](CCC(N)=O)C(=O)N[C@@H](C)C(=O)N[C@@H](CCC(=O)O)C(=O)N[C@@H](CCCNC(=N)N)C(=O)N[C@@H](Cc1c[nH]cn1)C(=O)N[C@@H](C)C(=O)N[C@@H](CCCNC(=N)N)C(=O)N[C@@H](CCC(=O)O)C(=O)N[C@@H](CCCCN)C(N)=O [NLM] (Ac-LKAQADIYKADFQAERHAREK-NH2; N-terminus and C-terminus assumed)
inhibition of NF-κB activation (NF-κB pathway; reported in WO 2005/027959): inhibit NF-κB activation
inhibition of CC2-LZ interaction with polyubiquitinylated proteins [2]: no inhibition was observed
oligomeric state / self-association [3]: behave as monomer
cooperativity index (Hill coefficient) n [4]: 8
Kd ([4]; read-out: dissociation constant for Lys63-linked polyubiquitin chains): 180 µM

BA-LZ L322P/L329P: BA-LZ bearing a double mutation within the coiled-coil interface, SEQ ID NO: 22 (C(Bodipy)RQIKIWFQNRRMKWKKLKAQADIYKADFQAERHAREKLVEKKEYPQEQLEQPQREFNKL; reading uncertain)
amount of NEMO oligomers (fluorescent NEMO subunit recovered) [1]: no dissociation of NEMO oligomers was observed

BA-LZ: Bodipy-antennapedia tagged LZ peptide, SEQ ID NO: 4 (human 5) (C(Bodipy)RQIKIWFQNRRMKWKKLKAQADIYKADFQAERHAREKLVEKKEYLQEQLEQLQREFNKL; reading uncertain)
amount of NEMO oligomers (fluorescent NEMO subunit recovered) [1]: strong decrease in the amount of fluorescent NEMO subunit

BA-NLM: NLM fused at N-terminus with antennapedia and conjugated with bodipy (C(Bodipy)RQIKIWFQNRRMKWKKLKAQADIYKADFQAERHAREK; reading uncertain)
amount of NEMO oligomers (fluorescent NEMO subunit recovered) [1]: same amount of NEMO oligomers in the absence or in the presence

LKAQADIYKADFQAERHAREKLVEKKEYLQEQLEQLQREFNKL [spLZ]
IC50 of inhibition of NF-κB activation (NF-κB pathway): in the μM range

SKGMQLEDLRQQLQQAEEALVAKQELIDKLKEEAEQHKIV [spCC2]
IC50 of inhibition of NF-κB activation (NF-κB pathway): in the μM range
